{"source": "paper PMC3298469", "about": "“A selective and potent CXCR3 antagonist SCH 546738 attenuates the development of autoimmune diseases and delays graft rejection” (BMC Immunology, 2012)", "key": {"[1]": {"test_system": "rat cardiac allograft", "test": "rat cardiac allograft transplant model (ACI to Lewis)", "assay_type": "in vivo", "conditions": "for mean survival time of the graft (MST): vehicle MST = 6 days", "method": "Cardiac graft of ACI (RT1a) rats was heterotopically transplanted into the abdominal cavity of Lewis (RT1^l) recipients employing a microvascular surgical technique as described. The grafts were monitored daily by abdominal palpation, and the complete cessation of heart contraction was defined as graft rejection. SCH 546738 or 0.4% methylcellulose (vehicle) was orally administered at the indicated dose (0.2 ml) twice a day, starting on the day before transplantation until the day of graft rejection. To test whether SCH 546738 enhanced the effect of conventional immunosuppressive reagent, the recipients were received treatment with subtherapeutic dose of CsA for one week combined with treatment with SCH 546738. Graft survival was analyzed using the log-rank test. The parametric data were analyzed by Student t test (2-tailed) using GraphPad InStat version 5.0.1 for Windows 98, GraphPad Software, San Diego California USA (http://www.graphpad.com). p < 0.05 was considered statistically significant.\nSCH 546738 was administered orally twice daily at 1, 5 and 15 mpk. […] Graft survival was analyzed using the log-rank test."}, "[2]": {"test": "plasma pharmacokinetics after oral dosing in Lewis rat", "assay_type": "in vivo", "conditions": "10 mg/kg oral in 0.4% methylcellulose, n = 3, read-out: AUC (0-24 hr)", "method": "SCH 546738 was tested at concentrations of 1-10 μM against a panel of 49 GPCR binding assays. Most of the assays were not affected by SCH 546738 (Table 2). […] In addition, SCH 546738 has a favourable pharmacokinetic profile in rodents. […] Therefore, SCH 546738 is suitable for in vivo preclinical studies.\nFigure 4 Plasma concentration versus time profiles of SCH 546738 in Lewis rat and C57BL/6 mouse. SCH 546738 in 0.4% methylcellulose was administered orally at 10 mg/kg (mpk) in Lewis rats or 30 mpk in C57BL/6 mice. The plasma concentration of SCH 546738 in the blood was calculated as the mean of 3 animals (n = 3) at indicated time points post-dose. Their AUC from 0 to 24 hr is also calculated and indicated."}}, "data": [{"smiles": "CC[C@H]1CN(c2nc(N)c(C(N)=O)nc2Cl)CCN1C1CCN(Cc2ccc(Cl)cc2)CC1", "note": "[SCH 546738]", "values": [{"measurement": "mean survival time of the graft (MST)", "setting": "[1]; 1 mpk oral twice daily", "result": 11, "unit": "days"}, {"measurement": "rate of permanent engraftment", "setting": "[1]; 5 mpk SCH 546738 twice daily in combination with 2.5 mpk cyclosporine", "result": 100, "unit": "%"}, {"measurement": "mean survival time of the graft (MST)", "setting": "[1]; 5 mpk oral twice daily", "result": 14, "unit": "days"}, {"measurement": "mean survival time of the graft (MST)", "setting": "[1]; 15 mpk oral twice daily", "result": 14.9, "unit": "days"}, {"measurement": "AUC(0-t)", "setting": "[2]", "result": 7.7, "unit": "µM·h"}]}]}
